Data on 1 molecule can be found in patent US7718677B2, “Methods and compositions for reduction of side effects of therapeutic treatments” (priority 2007, dated 2010).

“And” between values parts separate entries of the source, which are not always exact repeats. Equal values may be shown once.

Data set [1] concerns Squirrel (Saimiri sciureus) monkeys with nigrostriatal damage. The data set is described as follows: Levodopa-induced dyskinesias in MPTP-lesioned monkeys, nicotine in drinking solution before levodopa (Example 1). Type of data set: in vivo. The settings on record: scale 0-4, mean ± SE. How it is done:
Animals: Squirrel (Saimiri sciureus) monkeys (n=7) were purchased from World Wide Primates (Miami, Fla.). The animals weighed between 0.6-0.9 kg and were in mid to late adulthood as determined from their general appearance (dentition, fur, other). Female monkeys were used since older animals were available that may better model Parkinson's disease. The animals were placed in quarantine upon arrival, and maintained in a temperature-controlled room (27±3° C.) with a relative humidity>30%, under a 13/11-hour light/dark cycle. Monkey food chow and fruits/vegetables were provided once daily, with water provided ad libitum. The monkeys were housed in separate cages to allow for clear behavioral assessments. The animals were released from quarantine after 1 month and treatments initiated. All procedures conformed to the National Institutes of Health Guide for the Care and Use of Laboratory Animals and were approved by the Institutional Animal Care and Use Committee at the Parkinson's Institute.
(§1) 1-Methyl-4-phenyl-1,2,3,6-tetrahydropyridine (MPTP) administration: Prior to lesioning, the animals were allowed to acclimate to the colony and rated for parkinsonism as described (Langston et al. Ann Neurol. 2000; 47:S79-89). All values were within the normal range. The monkeys were then injected subcutaneously with 2.0 mg/kg MPTP (Sigma, St-Louis, Mo.) dissolved in saline. The animals were rated for parkinsonism 3-4 weeks after MPTP administration. The disability scores ranged from 0 (normal) to 28 for a severely parkinsonian animal. Animals were assessed for 1) spatial hypokinesia (reduction in use of the available cage space), 2) body bradykinesia (increased slowness in body movement), 3) left and 4) right manual dexterity, 5) balance, 6) freezing and 7) action tremor. If they were not parkinsonian, MPTP injection (1.0-2.0 mg/kg) was repeated from 2-5 times for total doses of 3.5 to 13.5 mg/kg. Despite multiple MPTP dosing, two of the animals were not stably parkinsonian.
Nicotine treatment: All monkeys (n=7) were then given a drinking solution for 3 weeks consisting of commercially available orange Gatorade® to mask nicotine's bitter taste (FIG. 1). The control group (n=4) was continued on Gatorade® only, while nicotine (free base) was added to the Gatorade of the treated group (n=3). Nicotine dosing was started at 50 μg/ml for 1 week, 150 μg/ml for 1 week, with the concentration increased by […] over the next few weeks, up to 650 μg/ml (FIG. 1).
Levodopa administration: Monkeys were administered levodopa/carbidopa (5 mg/kg and 1.25 mg/kg, respectively), prepared by crushing a tablet of Sinemet® CR 100/25 (DuPont Pharma) and dissolving it in water. This dose of levodopa is within the range of that prescribed to Parkinson's disease patients. The monkeys were gavaged twice daily at 3.5-hour intervals for 8 weeks at a time using a 5-day-on/2-day-off schedule (Hsu et al., J Pharmacol Exp Ther. 2004; 311:770-777). During levodopa treatment, the monkeys were given fruits in the morning and food pellets 3.5 hours after the afternoon levodopa dose to optimize gastrointestinal absorption.
Dyskinesias were rated from videotapes, as described (Hsu et al., J Pharmacol Exp Ther. 2004; 311:770-777). This included a one hour baseline period (no drugs) from ˜8:00-9:00 AM, followed by two 3.5-hour treatment periods with levodopa starting at ˜9:00 AM and ˜12:30 PM. Dyskinesias were rated for 2-minute periods at 30-minute intervals by two independent raters blinded to treatment. They were rated on a scale of 0 (no dyskinesias) to 4; a score of 1 was indicative of subtle dyskinesias that were not sustained; 2, mild dyskinesias that were sustained; 3, moderate dyskinesias that impaired the ability to remain stationary; 4, severe dyskinesias that were generalized and incapacitating.
Data analyses: The levodopa treatment protocol used in the present study involved a 5-day-on/2-day-off schedule.

The test system of data set [2] is MPTP-lesioned squirrel monkeys. The data set can be described thus: Parkinsonism rating on or off levodopa in MPTP-lesioned monkeys. Type of data set: in vivo, Saimiri sciureus. Details: key to Parkinson Ratings Expt 1 / Parkinson Ratings Expt 2 (crossover): disability score 0 = normal to 28 = severely parkinsonian. As to the method:
as §1
Data analyses: The levodopa treatment protocol used in the present study involved a 5-day-on/2-day-off schedule. Parkinsonian ratings were done on Monday and Friday of each week, with the score averaged over the two days. Dyskinesias ratings were determined by averaging the scores on Wednesday and Thursday of each week. All values are expressed as the mean±SE of the indicated number of animals. Results were compared using paired t-tests or analysis of variance (ANOVA) followed by Bonferroni multiple comparison post hoc test, using Prism® program (GraphPad Software, Inc, San Diego, Calif.). A level of 0.05 was considered significant.
White bars indicate no nicotine treatment and black bars indicate nicotine treatment. Parkinsonism was evaluated immediately before the afternoon L-dopa dose and 1.5 to 2 hours after L-dopa treatment, when a maximal antiparkinsonian effect is anticipated. Two of the seven animals in the study were not parkinsonian, and therefore were not included in this analysis. Error bars are the means±standard error of five animals before and after crossover of nicotine treatment. **p<0.01, as compared with the same group with no L-dopa treatment by a Mann-Withney test.

For data set [3] the following is noted: general description; cited from earlier work.
Setting [4] is: on levodopa treatment, 1.5-2 hours after dosing, individual animals, scale 0-28.

In the case of `N[C@@H](Cc1ccc(O)c(O)c1)C(=O)O` [levodopa, (−)-L-a-amino-b-(3,4-dihydroxybenzene) propanoic acid], the “dyskinetic ratings 3 hours after the afternoon levodopa treatment” value in data set [1] (week 2/3 of levodopa treatment, levodopa/carbidopa 5/1.25 mg/kg twice daily) amounted to 0.5 ± 0.3; in data set [1] (week 4 of levodopa treatment) it was 1.0 ± 0.4; in data set [1] (week 6 of levodopa treatment) it was 1.1 ± 0.2; in data set [1] (week 8 of levodopa treatment), 0.9 ± 0.1. In addition, the parkinsonism ratings result in data set [2] (measured 1.5-2 hours after levodopa dosing) is reported as “reduced”. In addition, in data set [2] (setting [4]), the “Parkinson Ratings Expt 1” value was 0.4 (2×) and 0.6. Further, the “Parkinson Ratings Expt 2 (crossover)” value in data set [2] (setting [4]) is 1.8 and 0.9. The “Parkinson Ratings Mean ± SE (n)” value in data set [2] (on levodopa treatment, 1.5-2 hours after dosing, n=5) was 0.8 ± 0.3 (5). For the same molecule, the solubility in water result in data set [3] is recorded as “slightly soluble”.
